Literature values in patent publication US20020165233A1, “Quinoxaline containing medicaments for post exposure prophylaxis of an HIV infection” (priority 1999, published 2002).

Columns and labels:
HIV-1 = details: inhibitor given 1 hr before challenge, continued 20-30 weeks post challenge; cited from earlier work
SIV = details: administration 48 h before, 4 h after and 24 h after virus inoculation for 4 weeks; observed 56 weeks; cited from earlier work
RT-SHIV = RT-SHIV infected rhesus monkeys; cited from earlier work
HIV [1] = details: cited from earlier work
HIV [2] = details: prophylaxis with only zidovudine; case-control study; cited from earlier work

**Q.** For CCc1cc(CCc2nc3ccccc3o2)c(=O)[nH]c1C [L-696,229], which “outcome of prophylaxis in treated animals” value (HIV-1) is on record?
**A.** The value was “developed delayed infections”.

**Q.** Which “protection against SIV infection” value (SIV) does the source give for C[C@H](Cn1cnc2c(N)ncnc21)OCP(=O)(O)O [PMPA] here?
**A.** The value was “full protection”.

**Q.** And the “effect of post exposure prophylaxis (PEP)” value (RT-SHIV)?
**A.** Its value is “vaccination effect protecting the animals against wild-type challenge”.

**Q.** With Cc1cn([C@H]2C[C@H](N=[N+]=[N-])[C@@H](CO)O2)c(=O)[nH]c1=O [zidovudine] as the compound, how does the “suppression (change in viremia)” value (HIV [1]; after 7 days of treatment at 1000 mg per day (Loveday et al)) read?
**A.** The value was 1 log.

**Q.** What about the mean initial suppression (HIV [1]; conventionally used antiviral agents given alone) of the same compound?
**A.** Its mean initial suppression is ≤ 1 log.

**Q.** What about the “protective effect of prophylaxis” value (HIV [2]) of the same compound?
**A.** The value was 80%.
